Source: ChEMBL document CHEMBL5715954, “Silencing c-Myc translation as a therapeutic strategy through targeting PI3Kδ and CK1ε in hematological malignancies” (Blood, 2017)

Columns and labels:
Set-up in all cases: scale not given: the % may be the effect or the level left
[1] = target: T1, Dual specificity mitogen-activated protein kinase kinase 4 (Homo sapiens) (UniProt P45985); test: Inhibition of human MKK4 assessed as enzyme activity at 1 uM using JNK1 (K55M) as substrate preincubated for 20 mins followed by [gamma-33P]-ATP addition and measured after 120 mins by radiometric Hot-SpotSM Kinase assay relative to control
T1 sequence (whole entry): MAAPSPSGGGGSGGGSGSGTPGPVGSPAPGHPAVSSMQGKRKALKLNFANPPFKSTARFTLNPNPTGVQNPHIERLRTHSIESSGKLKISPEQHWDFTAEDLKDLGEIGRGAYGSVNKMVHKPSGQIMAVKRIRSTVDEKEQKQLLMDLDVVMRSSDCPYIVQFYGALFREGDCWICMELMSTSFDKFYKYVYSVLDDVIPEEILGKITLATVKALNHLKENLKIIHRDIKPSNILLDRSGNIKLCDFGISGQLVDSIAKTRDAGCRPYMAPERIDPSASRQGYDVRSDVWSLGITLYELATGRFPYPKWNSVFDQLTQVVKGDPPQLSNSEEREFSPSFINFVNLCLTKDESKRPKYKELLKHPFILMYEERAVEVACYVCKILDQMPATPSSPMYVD

[2] = target: T2, Tyrosine-protein kinase Mer (Homo sapiens) (UniProt Q12866); test: Inhibition of human c-MER assessed as enzyme activity at 1 uM using poly[Glu:Tyr] (4:1) as substrate preincubated for 20 mins followed by [gamma-33P]-ATP addition and measured after 120 mins by radiometric Hot-SpotSM Kinase assay relative to control
T2 sequence (whole entry): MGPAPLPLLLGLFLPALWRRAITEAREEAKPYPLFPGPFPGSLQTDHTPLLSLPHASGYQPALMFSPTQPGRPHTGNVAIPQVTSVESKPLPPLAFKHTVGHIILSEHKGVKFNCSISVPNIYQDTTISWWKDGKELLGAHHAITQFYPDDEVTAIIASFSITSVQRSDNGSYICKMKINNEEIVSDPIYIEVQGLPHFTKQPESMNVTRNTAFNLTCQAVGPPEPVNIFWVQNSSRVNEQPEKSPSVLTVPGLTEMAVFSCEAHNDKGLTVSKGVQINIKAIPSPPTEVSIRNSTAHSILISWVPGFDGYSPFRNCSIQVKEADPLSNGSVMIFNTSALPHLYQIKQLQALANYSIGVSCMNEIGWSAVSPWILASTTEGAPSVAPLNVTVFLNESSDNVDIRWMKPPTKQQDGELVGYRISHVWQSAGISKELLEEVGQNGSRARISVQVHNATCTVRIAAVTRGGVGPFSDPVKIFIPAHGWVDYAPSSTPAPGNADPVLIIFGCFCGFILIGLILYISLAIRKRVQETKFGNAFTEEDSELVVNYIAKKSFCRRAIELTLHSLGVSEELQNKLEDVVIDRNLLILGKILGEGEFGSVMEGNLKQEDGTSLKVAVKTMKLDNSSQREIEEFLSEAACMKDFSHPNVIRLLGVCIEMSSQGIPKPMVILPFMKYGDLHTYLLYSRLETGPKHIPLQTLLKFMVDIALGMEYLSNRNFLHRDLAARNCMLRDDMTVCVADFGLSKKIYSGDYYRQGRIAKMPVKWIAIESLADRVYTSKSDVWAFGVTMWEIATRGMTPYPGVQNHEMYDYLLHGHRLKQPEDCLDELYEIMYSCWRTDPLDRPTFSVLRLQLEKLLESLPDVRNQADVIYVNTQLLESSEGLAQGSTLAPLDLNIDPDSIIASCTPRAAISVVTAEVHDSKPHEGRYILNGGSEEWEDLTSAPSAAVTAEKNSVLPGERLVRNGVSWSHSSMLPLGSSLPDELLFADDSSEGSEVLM

[3] = target: Casein kinase I isoform epsilon (Homo sapiens, UniProt P49674); test: Inhibition of human CK1epsilon assessed as enzyme activity at 1 uM using KRRRAL[pS]VASLPGL as substrate preincubated for 20 mins followed by [gamma-33P]-ATP addition and measured after 120 mins by radiometric Hot-SpotSM Kinase assay relative to control
[4] = target: Tyrosine-protein kinase SYK (Homo sapiens) (UniProt P43405); test: Inhibition of human SYK assessed as enzyme activity at 1 uM using poly[Glu:Tyr] (4:1) as substrate preincubated for 20 mins followed by [gamma-33P]-ATP addition and measured after 120 mins by radiometric Hot-SpotSM Kinase assay relative to control
[5] = target: Calcium/calmodulin-dependent protein kinase kinase 1 (Homo sapiens) (UniProt Q8N5S9); test: Inhibition of human CAMKK1 assessed as enzyme activity at 1 uM using myelin basic protein as substrate preincubated for 20 mins followed by [gamma-33P]-ATP addition and measured after 120 mins by radiometric Hot-SpotSM Kinase assay relative to control
[6] = target: Tyrosine-protein kinase Fgr (Homo sapiens) (UniProt P09769); test: Inhibition of human FGR assessed as enzyme activity at 1 uM using poly[Glu:Tyr] (4:1) as substrate preincubated for 20 mins followed by [gamma-33P]-ATP addition and measured after 120 mins by radiometric Hot-SpotSM Kinase assay relative to control
Tyrosine-protein kinase Fgr (Homo sapiens), sequence (P09769 2-529 limits assumed): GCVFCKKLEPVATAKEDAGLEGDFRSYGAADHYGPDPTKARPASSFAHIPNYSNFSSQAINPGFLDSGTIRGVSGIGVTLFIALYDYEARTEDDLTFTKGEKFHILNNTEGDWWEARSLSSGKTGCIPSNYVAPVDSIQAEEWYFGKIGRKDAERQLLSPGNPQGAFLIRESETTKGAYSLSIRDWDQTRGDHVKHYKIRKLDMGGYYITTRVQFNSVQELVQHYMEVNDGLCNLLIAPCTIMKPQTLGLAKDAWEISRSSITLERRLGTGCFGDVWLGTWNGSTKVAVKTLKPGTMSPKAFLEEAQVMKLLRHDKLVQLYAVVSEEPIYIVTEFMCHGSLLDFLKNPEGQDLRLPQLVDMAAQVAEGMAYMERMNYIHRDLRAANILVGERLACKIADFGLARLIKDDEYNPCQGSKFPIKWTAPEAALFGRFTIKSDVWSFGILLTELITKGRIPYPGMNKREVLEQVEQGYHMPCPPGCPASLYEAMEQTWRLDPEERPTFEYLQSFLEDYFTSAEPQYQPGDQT

Casein kinase I isoform epsilon, sequence (P49674 whole entry, looked up, canonical isoform): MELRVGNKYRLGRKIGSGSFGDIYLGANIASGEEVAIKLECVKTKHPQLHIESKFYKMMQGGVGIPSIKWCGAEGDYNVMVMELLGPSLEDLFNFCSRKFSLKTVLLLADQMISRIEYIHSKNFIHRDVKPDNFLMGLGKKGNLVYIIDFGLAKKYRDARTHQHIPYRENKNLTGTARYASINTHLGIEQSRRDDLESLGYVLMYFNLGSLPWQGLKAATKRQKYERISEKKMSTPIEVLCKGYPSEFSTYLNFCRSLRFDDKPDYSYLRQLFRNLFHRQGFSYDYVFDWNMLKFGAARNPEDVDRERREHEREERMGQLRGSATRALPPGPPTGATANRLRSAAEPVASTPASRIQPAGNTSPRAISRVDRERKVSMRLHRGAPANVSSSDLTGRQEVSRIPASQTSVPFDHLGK
Calcium/calmodulin-dependent protein kinase kinase 1 (Homo sapiens), sequence (Q8N5S9 whole entry, looked up): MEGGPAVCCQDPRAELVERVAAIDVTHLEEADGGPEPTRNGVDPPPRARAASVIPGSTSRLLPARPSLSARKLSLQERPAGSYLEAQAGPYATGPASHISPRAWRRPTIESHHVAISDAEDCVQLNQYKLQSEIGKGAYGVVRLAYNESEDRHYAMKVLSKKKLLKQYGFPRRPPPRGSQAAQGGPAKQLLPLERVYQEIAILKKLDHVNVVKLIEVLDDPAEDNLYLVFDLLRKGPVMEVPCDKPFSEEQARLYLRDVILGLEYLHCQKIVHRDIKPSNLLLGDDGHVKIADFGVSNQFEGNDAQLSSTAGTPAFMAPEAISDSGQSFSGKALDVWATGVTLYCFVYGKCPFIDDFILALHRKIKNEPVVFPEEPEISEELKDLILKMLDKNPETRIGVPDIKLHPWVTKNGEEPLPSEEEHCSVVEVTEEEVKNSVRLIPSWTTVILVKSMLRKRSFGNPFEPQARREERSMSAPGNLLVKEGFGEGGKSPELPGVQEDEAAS

Compound: CC[C@H](Nc1ncnc2[nH]cnc12)c1nc2cccc(F)c2c(=O)n1-c1ccccc1
- Activity [1]: 99.9%
- Activity [2]: 104%
- Activity [3]: 92.9%
- Activity [4]: 103%
- Activity [5]: 105%
- Activity [6]: 98.8%

Compound: C[C@H](Nc1ncnc2nc[nH]c12)c1cc2cccc(Cl)c2c(=O)n1-c1ccccc1
- Activity [1]: 96.9%
- Activity [2]: 103%
- Activity [3]: 90.9%
- Activity [4]: 100%
- Activity [5]: 98.1%
- Activity [6]: 103%

Compound: CC(C)Oc1ccc(-c2nn([C@@H](C)c3oc4ccc(F)cc4c(=O)c3-c3cccc(F)c3)c3ncnc(N)c23)cc1F [UMBRALISIB]
- Activity [1]: 98.7%
- Activity [2]: 102%
- Activity [3]: 39.9%
- Activity [4]: 102%
- Activity [5]: 102%
- Activity [6]: 99.6%
